Test results reported in US6737383B1, “Herbicidal oxadiazolidines” (priority 1999, dated 2004).

Experiments:
wild oat = test: Test B pre/postemergence wild oat; type: in vivo, Avena fatua
Summary of the method: (§1)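 Herbicidal effect was estimated by eye on a ten-point control scale after plants spent twelve to sixteen days in a greenhouse following soil or foliar treatment. Foliar sprays targeted plants at one to four leaves; all doses were formulated in a non-phytotoxic solvent with surfactant.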

rape = test: Test B pre/postemergence rape; type: in vivo, Brassica napus
Summary of the method: as §1

pigweed = test: Test B pre/postemergence pigweed; type: in vivo, Amaranthus retroflexus
Summary of the method: as §1

velvetleaf = test: Test B pre/postemergence velvetleaf; type: in vivo, Abutilon theophrasti
Summary of the method: as §1

wheat = test: Test B pre/postemergence wheat; type: in vivo, Triticum aestivum
Summary of the method: as §1

giant foxtail = test: Test B pre/postemergence giant foxtail; type: in vivo, Setaria faberii
Summary of the method: as §1

cocklebur = test: Test B pre/postemergence cocklebur; type: in vivo, Xanthium strumarium
Summary of the method: as §1

duck salad = test: Test B flood test duck salad; type: in vivo, Heteranthera limosa
Summary of the method: (§2)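 Plants were grown to the 2-leaf stage before treatment with test chemical, then held in a greenhouse for twelve to sixteen days. Injury was visually rated against untreated controls on a 0–10 scale, where 0 is no effect and 10 is complete control.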

surinam grass = test: Test B pre/postemergence surinam grass; type: in vivo, Brachiaria decumbens
Summary of the method: as §1

sugar beet = test: Test B pre/postemergence sugar beet; type: in vivo, Beta vulgaris
Summary of the method: as §1

rice = test: Test B flood test rice; type: in vivo, Oryza sativa
Summary of the method: as §2

purple nutsedge = test: Test B pre/postemergence purple nutsedge; type: in vivo, Cyperus rotundus
Summary of the method: as §1

smallflower flatsedge = test: Test B flood test smallflower flatsedge; type: in vivo, Cyperus difformis
Summary of the method: as §2

bedstraw = test: Test B pre/postemergence bedstraw; type: in vivo, Galium aparine
Summary of the method: as §1

soybean = test: Test B pre/postemergence soybean; type: in vivo, Glycine max
Summary of the method: as §1

corn = test: Test B pre/postemergence corn; type: in vivo, Zea mays
Summary of the method: as §1

[1] = Preemergence, Rate 62 g/ha, scale of 0 to 10 where 0 is no effect and 10 is complete control
[2] = Preemergence, Rate 125 g/ha, 0 is no effect, 10 is complete control
[3] = Preemergence, Rate 250 g/ha, scale 0 to 10, 0 is no effect, 10 is complete control
[4] = Preemergence, Rate 500 g/ha, scale 0 to 10 (0 no effect, 10 complete control)
[5] = Rate 250 g/ha, Postemergence, scale 0 to 10, 0 is no effect, 10 is complete control
[6] = Rate 500 g/ha, Postemergence, scale 0 to 10
[7] = Postemergence, Rate 125 g/ha, scale of 0 to 10 where 0 is no effect and 10 is complete control
[8] = Rate 62 g/ha, Postemergence, scale of 0 to 10 where 0 is no effect and 10 is complete control
[9] = Postemergence (flood test species), Rate 125 g/ha, scale of 0 to 10 where 0 is no effect and 10 is complete control
[10] = Rate 62 g/ha, Postemergence section, flood test species, scale of 0 to 10 where 0 is no effect and 10 is complete control
[11] = Rate 250 g/ha, Postemergence (flood test), scale 0 to 10, 0 is no effect, 10 is complete control
[12] = Rate 500 g/ha, listed under Postemergence (flood test species), scale 0 to 10

Which “Wild oats plant response rating” value (wild oat; [1]) does the source give for CC(C)Cn1c(=O)on(C(=O)N(c2ccc(F)cc2)C(C)C)c1=O [Compound 169] here?
Its value is 8.

What about the “Wild oats plant response rating (0 to 10 scale)” value (wild oat; [2]) of the same molecule?
Its value is 8.

What about the “Wild oats plant response rating” value (wild oat; [3]) of the same molecule?
The value was 8.

What about the “Wild oats plant response rating” value (wild oat; [4]) of the same molecule?
Its value is 10.

And the “Plant response rating, Wild oats” value (wild oat; [5])?
The value was 0.

What about the “Wild oats plant response rating” value (wild oat; [6]) of the same molecule?
Its value is 2.

And the “Rape plant response rating” value (rape; [7])?
Its value is 0.

What about the “Rape plant response rating” value (rape; [1]) of the same molecule?
The value was 2.

What about the “Rape plant response rating (0 to 10 scale)” value (rape; [2]) of the same molecule?
The value was 2.

What about the “Rape plant response rating” value (rape; [3]) of the same molecule?
The value was 6.

And the “Rape plant response rating” value (rape; [4])?
Its value is 10.

And the “Rape plant response rating” value (rape; [8])?
The value was 0.

What about the “Plant response rating, Rape” value (rape; [5]) of the same molecule?
The value was 0.

And the “Rape plant response rating” value (rape; [6])?
The value was 3.

And the “Redroot pigweed plant response rating” value (pigweed; [7])?
Its value is 0.

And the “Redroot pigweed plant response rating” value (pigweed; [1])?
The value was 6.

And the “Redroot pigweed plant response rating (0 to 10 scale)” value (pigweed; [2])?
The value was 6.

And the “Redroot pigweed plant response rating” value (pigweed; [3])?
Its value is 8.

And the “Redroot pigweed plant response rating” value (pigweed; [4])?
The value was 8.

And the “Redroot pigweed plant response rating” value (pigweed; [8])?
Its value is 0.

And the “Plant response rating, Redroot pigweed” value (pigweed; [5])?
Its value is 0.

And the “Redroot pigweed plant response rating” value (pigweed; [6])?
The value was 3.

What about the “Velvetleaf plant response rating” value (velvetleaf; [1]) of the same molecule?
The value was 2.

And the “Velvetleaf plant response rating (0 to 10 scale)” value (velvetleaf; [2])?
The value was 2.

What about the “Velvetleaf plant response rating” value (velvetleaf; [3]) of the same molecule?
Its value is 6.

What about the “Velvetleaf plant response rating” value (velvetleaf; [4]) of the same molecule?
The value was 8.

And the “Plant response rating, Velvetleaf” value (velvetleaf; [5])?
The value was 0.

What about the “Velvetleaf plant response rating” value (velvetleaf; [6]) of the same molecule?
The value was 0.

And the “Wheat plant response rating” value (wheat; [1])?
The value was 0.

And the “Wheat plant response rating (0 to 10 scale)” value (wheat; [2])?
Its value is 0.

And the “Wheat plant response rating” value (wheat; [3])?
Its value is 3.

What about the “Wheat plant response rating” value (wheat; [4]) of the same molecule?
Its value is 4.

And the “Plant response rating, Wheat” value (wheat; [5])?
Its value is 0.

And the “Wheat plant response rating” value (wheat; [6])?
The value was 2.

And the “Giant foxtail plant response rating” value (giant foxtail; [7])?
Its value is 2.

And the “Giant foxtail plant response rating” value (giant foxtail; [1])?
The value was 10.

And the “Giant foxtail plant response rating (0 to 10 scale)” value (giant foxtail; [2])?
Its value is 10.

What about the “Giant foxtail plant response rating” value (giant foxtail; [3]) of the same molecule?
Its value is 10.

And the “Giant foxtail plant response rating” value (giant foxtail; [4])?
Its value is 10.

And the “Giant foxtail plant response rating” value (giant foxtail; [8])?
The value was 0.

What about the “Plant response rating, Giant foxtail” value (giant foxtail; [5]) of the same molecule?
Its value is 6.

What about the “Giant foxtail plant response rating” value (giant foxtail; [6]) of the same molecule?
Its value is 9.

What about the “Cocklebur plant response rating” value (cocklebur; [7]) of the same molecule?
The value was 0.

What about the “Cocklebur plant response rating” value (cocklebur; [1]) of the same molecule?
The value was 0.

What about the “Cocklebur plant response rating (0 to 10 scale)” value (cocklebur; [2]) of the same molecule?
Its value is 0.

What about the “Cocklebur plant response rating” value (cocklebur; [3]) of the same molecule?
The value was 0.

And the “Cocklebur plant response rating” value (cocklebur; [4])?
The value was 0.

What about the “Cocklebur plant response rating” value (cocklebur; [8]) of the same molecule?
The value was 0.

What about the “Plant response rating, Cocklebur” value (cocklebur; [5]) of the same molecule?
The value was 0.

What about the “Cocklebur plant response rating” value (cocklebur; [6]) of the same molecule?
The value was 3.

And the “Ducksalad plant response rating” value (duck salad; [9])?
Its value is 0.

And the “Ducksalad plant response rating” value (duck salad; [10])?
Its value is 0.

And the “Plant response rating, Ducksalad” value (duck salad; [11])?
Its value is 0.

And the “Ducksalad plant response rating” value (duck salad; [12])?
Its value is 0.

And the “B. signalgrass plant response rating” value (surinam grass; [7])?
The value was 0.

And the “B. signalgrass plant response rating” value (surinam grass; [1])?
The value was 7.

What about the “B. signalgrass plant response rating (0 to 10 scale)” value (surinam grass; [2]) of the same molecule?
The value was 7.

What about the “B. signalgrass plant response rating” value (surinam grass; [3]) of the same molecule?
The value was 7.

And the “B. signalgrass plant response rating” value (surinam grass; [4])?
Its value is 7.

What about the “B. signalgrass plant response rating” value (surinam grass; [8]) of the same molecule?
Its value is 0.

And the “Plant response rating, B. signalgrass” value (surinam grass; [5])?
The value was 0.

What about the “B. signalgrass plant response rating” value (surinam grass; Rate 500 g/ha, Postemergence, scale 0 to 10, 0 no effect, 10 complete control) of the same molecule?
Its value is 7.

What about the “Sugarbeets plant response rating” value (sugar beet; [7]) of the same molecule?
The value was 0.

What about the “Sugarbeets plant response rating” value (sugar beet; [1]) of the same molecule?
Its value is 0.

And the “Sugarbeets plant response rating (0 to 10 scale)” value (sugar beet; [2])?
The value was 0.

What about the “Sugarbeets plant response rating” value (sugar beet; [3]) of the same molecule?
The value was 7.

What about the “Sugarbeets plant response rating” value (sugar beet; [4]) of the same molecule?
The value was 8.

What about the “Sugarbeets plant response rating” value (sugar beet; [8]) of the same molecule?
The value was 0.

And the “Plant response rating, Sugarbeets” value (sugar beet; [5])?
Its value is 0.

What about the “Sugarbeets plant response rating” value (sugar beet; [6]) of the same molecule?
Its value is 0.

What about the “Rice plant response rating” value (rice; [9]) of the same molecule?
The value was 0.

What about the “Rice plant response rating” value (rice; [10]) of the same molecule?
Its value is 0.

And the “Plant response rating, Rice” value (rice; [11])?
The value was 0.

What about the “Rice plant response rating” value (rice; [12]) of the same molecule?
The value was 0.

And the “Nutsedge plant response rating” value (purple nutsedge; [7])?
The value was 0.

What about the “Nutsedge plant response rating” value (purple nutsedge; [1]) of the same molecule?
Its value is 0.

What about the “Nutsedge plant response rating (0 to 10 scale)” value (purple nutsedge; [2]) of the same molecule?
The value was 0.

And the “Nutsedge plant response rating” value (purple nutsedge; [3])?
The value was 0.

What about the “Nutsedge plant response rating” value (purple nutsedge; [4]) of the same molecule?
Its value is 3.

What about the “Nutsedge plant response rating” value (purple nutsedge; [8]) of the same molecule?
Its value is 0.

What about the “Plant response rating, Nutsedge” value (purple nutsedge; [5]) of the same molecule?
The value was 0.

What about the “Nutsedge plant response rating” value (purple nutsedge; [6]) of the same molecule?
Its value is 0.

What about the “S. Flatsedge plant response rating” value (smallflower flatsedge; [9]) of the same molecule?
The value was 0.

And the “S. Flatsedge plant response rating” value (smallflower flatsedge; [10])?
Its value is 0.

And the “Plant response rating, S. Flatsedge” value (smallflower flatsedge; [11])?
Its value is 0.

And the “S. Flatsedge plant response rating” value (smallflower flatsedge; [12])?
The value was 0.

And the “Bedstraw plant response rating” value (bedstraw; [7])?
The value was 2.

And the “Bedstraw plant response rating” value (bedstraw; [1])?
The value was 0.

And the “Bedstraw plant response rating (0 to 10 scale)” value (bedstraw; [2])?
Its value is 0.

And the “Bedstraw plant response rating” value (bedstraw; [3])?
Its value is 7.

What about the “Bedstraw plant response rating” value (bedstraw; [4]) of the same molecule?
The value was 10.

And the “Bedstraw plant response rating” value (bedstraw; [8])?
Its value is 2.

What about the “Plant response rating, Bedstraw” value (bedstraw; [5]) of the same molecule?
Its value is 7.

What about the “Soybean plant response rating” value (soybean; [7]) of the same molecule?
The value was 1.

What about the “Soybean plant response rating” value (soybean; [1]) of the same molecule?
The value was 0.

What about the “Soybean plant response rating (0 to 10 scale)” value (soybean; [2]) of the same molecule?
The value was 0.

And the “Soybean plant response rating” value (soybean; [3])?
The value was 2.

What about the “Soybean plant response rating” value (soybean; [4]) of the same molecule?
The value was 5.

And the “Soybean plant response rating” value (soybean; [8])?
The value was 1.

And the “Plant response rating, Soybean” value (soybean; [5])?
Its value is 3.

What about the “Soybean plant response rating” value (soybean; [6]) of the same molecule?
Its value is 6.

What about the “Corn plant response rating” value (corn; [7]) of the same molecule?
The value was 0.

And the “Corn plant response rating” value (corn; [1])?
Its value is 0.

And the “Corn plant response rating (0 to 10 scale)” value (corn; [2])?
Its value is 0.

And the “Corn plant response rating” value (corn; [3])?
Its value is 3.

What about the “Corn plant response rating” value (corn; [4]) of the same molecule?
Its value is 6.

What about the “Corn plant response rating” value (corn; [8]) of the same molecule?
The value was 0.

What about the “Plant response rating, Corn” value (corn; [5]) of the same molecule?
Its value is 0.

What about the “Corn plant response rating” value (corn; [6]) of the same molecule?
Its value is 0.
